Data reported in patent US11311576B2, “Methods of use for CAR T cells” (Seattle Children's Hospital, priority 2018, dated 2022).

Tests used:
[1] = test system: HOS-FRα tumor; assay: CRS toxicity and sodium fluorescein rescue in HOS-FRα tumor-bearing mice; type: in vivo; details: intravenous ~95 mg/kg on day 13, plasma 6 hours later, 35 million total CAR-T cells
Method: All animal care and use were performed according to NIH guidelines and in compliance with protocols approved by the Purdue University Animal Use and Care Committee. Female 4 to 5-week-old NOD/SCID gamma (NSG™) mice (stock number: 005557) were purchased from The Jackson Laboratory (Bar Harbor, Me.). Unless specifically indicated, all animals were maintained on a FA-deficient diet (TestDiet, St. Louis, Mo.) upon arrival and throughout the study. To establish subcutaneous xenografts, MDA-MB-231 and HOS-FRα were implanted in the right flank region at 2.5×10^6 and 1×10^6 cells per animal, respectively. For intravenous xenografts, THP1-FRb cells were inoculated at 5×10^6 cells per animal. Subcutaneous tumors were measured 2-3 times per week with a caliper and calculated using the ellipsoidal formula […]. […] All animal doses (CAR-T cells, EC17, sodium fluorescein) were given intravenously.
Depending on the CAR-T cell dose and how EC17 is administered, tumor-bearing mice receiving FITC-specific CAR-T cells can experience severe CRS and varying degrees of body weight loss. […] On the days immediately following each EC17 dose, animals were scored and rescue agents such as sodium fluorescein, folic acid and leucovorin were used to mitigate CRS toxicity. […]

[2] = test system: MDA-MB-231 tumors; assay: CAR-T therapy with EC17 fixed dose or dose de-escalation in mice bearing MDA-MB-231 tumors; type: in vivo
Text: The effect of EC17 dose de-escalation was investigated on the anti-tumor activity and the toxicity (body weight changes) of CAR-T therapy. Two different anti-fluorescein scFv were used for the CAR constructions (FIG. 1). The first construct of CAR contains the following domains: antiFL(FITC-E2)scFv-IgG4 hinge (CH2 (L235D, N297Q)-CH3)-CD28 TM-4-1BB-CD3z-T2A-EGFRt. The second construct of CAR contains the following domains: antiFL(FITC-4M5.3)scFv-IgG4 hinge (CH2 (L235D, N297Q)-CH3)-CD28 TM-4-1BB-CD3z-T2A-EGFRt. The nucleic acid sequence and amino acid sequence of the CAR of each construct are shown as SEQ ID NOS:1 to 4. Human T cells were isolated, activated and transduced with a lentiviral vector carrying the appropriate CAR gene. CD4+ T cells with the CAR-modification and CD8+ T cells with the CAR-modification were isolated and cultured separately in vitro for about 7 days. CD4+ CAR-T cells and CD8+ CAR-T cells were mixed at a 1:1 ratio before i.v. administration for animal studies.
The second construct 4M5.3-CAR (antiFL(FITC-4M5.3) scFv-IgG4 hinge (CH2 (L235D, N297Q)-CH3)-CD28 TM-4-1BB-CD3z-T2A-EGFRt) was also evaluated. Mice bearing MDA-MB-231 tumors (150-250 mm^3) were used for in vivo studies to evaluate 4M5.3-CAR-T cells. […]

O=C([O-])c1ccccc1-c1c2ccc(=O)cc-2oc2cc([O-])ccc12.[Na+].[Na+] [sodium fluorescein]
CAR-T cell derived human cytokines after rescue [1]: acted very quickly to reduce CAR-T cell derived human cytokines
antitumor activity after NaFL rescue ([2]; E2-CAR-T 10 and 20 million cells, EC17 500 nmol/kg SIW, NaFL 6 umol/kg): antitumor activity was maintained
antitumor activity after NaFL rescue ([2]; E2-CAR-T 30 million cells with EC17 dose de-escalation): antitumor activity is maintained
